What was measured:
Format in all cases: in vivo
barnyard grass (Eo) = test: Test Example 1: herbicidal effects by flooded paddy field treatment; parameters: herbicidal effects, Eo (barnyard grass):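 0-5 growth inhibition grade; 5 = over 90%; 4 = 70-90%; 3 = 50-70%; 2 = 30-50%; 1 = 10-30%; 0 = under 10%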; conditions: for herbicidal effects, Eo (barnyard grass): dose 100 g active ingredient per 10 ares, examined on the 21st day after treatment, standards of Table 44; for Herbicidal effect index, Eo: dose 100 gai/10a, examined on 21st day after treatment, index 0-5 per Table 44;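 on Herbicidal effect index, Eo: 0-5 growth inhibition grade; 5 = over 90%; 4 = 70-90%; 3 = 50-70%; 2 = 30-50%; 1 = 10-30%; 0 = under 10%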
Experimental: (§1) In a 100 cm^2 plastic pot, paddy field soil was filled and paddled. Then, seeds of barnyard grass (Eo) and monochoria (Mo) were sown, and water was introduced to a depth of 3 cm. Next day, a wettable powder prepared in accordance with Formulation Example 1 was diluted with water and dropwise applied to the water surface. The dose was 100 g of the active ingredient per 10 ares. Thereafter, cultivation was carried out in a green house, and on the 21st day after the treatment, the herbicidal effects were examined in accordance with the standards as identified in Table 44.

barnyard grass (Ec) = test: Test Example 2: herbicidal effects by upland soil treatment; parameters: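 0-5 growth inhibition grade; 5 = over 90%; 4 = 70-90%; 3 = 50-70%; 2 = 30-50%; 1 = 10-30%; 0 = under 10%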; conditions: dose 100 g active ingredient per 10 ares, examined on the 21st day after treatment
Experimental: In a 80 cm^2 plastic pot, upland soil was filled, and seeds of barnyard grass (Ec) and green foxtail (Se) were sown and covered with soil. A wettable powder prepared in accordance with Formulation Example 1 was diluted with water and uniformly applied to the soil surface by means of a small size spray at a rate of 100 l per 10 ares, so that the dose of the active ingredient would be 100 g per 10 ares. Thereafter, cultivation was carried out in a green house, and on the 21st day after the treatment, the herbicidal effects were examined in accordance with the standards as identified in Table 44.

monochoria (Mo) = test: Test Example 1: herbicidal effects by flooded paddy field treatment; parameters: herbicidal effects, Mo (monochoria):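 0-5 growth inhibition grade; 5 = over 90%; 4 = 70-90%; 3 = 50-70%; 2 = 30-50%; 1 = 10-30%; 0 = under 10%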; conditions: for herbicidal effects, Mo (monochoria): dose 100 g active ingredient per 10 ares, examined on the 21st day after treatment, standards of Table 44; for Herbicidal effect index, Mo: dose 100 gai/10a, examined on 21st day after treatment, index 0-5 per Table 44;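 on Herbicidal effect index, Mo: 0-5 growth inhibition grade; 5 = over 90%; 4 = 70-90%; 3 = 50-70%; 2 = 30-50%; 1 = 10-30%; 0 = under 10%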
Experimental: as §1

## CCC(C)C(c1cncnc1C(F)(F)F)N(C)C(=O)Cc1ccc(C(F)(F)F)cc1 (mixture of isomers) [1-307]
Barnyard grass (Eo)
  herbicidal effects, Eo (barnyard grass): 5
Barnyard grass (Ec)
  Ec (herbicidal effects, index): 5
Monochoria (Mo)
  herbicidal effects, Mo (monochoria): 5

## CC(NC(=O)N(C)C(c1cncnc1C(F)(F)F)C(C)C)c1ccccc1 (mixture of isomers) [1-535]
Barnyard grass (Eo)
  herbicidal effects, Eo (barnyard grass): 5
Barnyard grass (Ec)
  Ec (herbicidal effects, index): 5
Monochoria (Mo)
  herbicidal effects, Mo (monochoria): 5

## C#CCN(C(=O)C(C)c1ccccc1)C(c1cncnc1CC)C(C)C (mixture of isomers) [1-562]
Barnyard grass (Eo)
  herbicidal effects, Eo (barnyard grass): 5
Barnyard grass (Ec)
  Ec (herbicidal effects, index): 5
Monochoria (Mo)
  herbicidal effects, Mo (monochoria): 5

## COC(OC)c1ncncc1C(C(C)C)N(C)C(=O)C(C)c1ccc(Cl)cc1 (mixture of isomers) [1-625]
Barnyard grass (Ec)
  Ec (herbicidal effects, index): 4

## CSC(C(=O)N(C)C(c1cncnc1C(F)(F)F)C(C)C)c1ccc(Cl)cc1 (mixture of isomers) [Compound 1-154]
Barnyard grass (Eo)
  herbicidal effects, Eo (barnyard grass): 5
Monochoria (Mo)
  herbicidal effects, Mo (monochoria): 5

## CC(C)C(c1cncnc1C(F)(F)F)N(C)C(=O)Oc1ccc(Cl)cc1 (racemic) [1-178]
Barnyard grass (Eo)
  herbicidal effects, Eo (barnyard grass): 5
Monochoria (Mo)
  herbicidal effects, Mo (monochoria): 4

## CC(C)C(c1cncnc1C(F)(F)Cl)N(C)C(=O)Oc1ccc(F)cc1 (racemic) [1-184]
Barnyard grass (Eo)
  herbicidal effects, Eo (barnyard grass): 5
Monochoria (Mo)
  herbicidal effects, Mo (monochoria): 5

## CC(C)C(c1cncnc1C(F)(F)Cl)N(C)C(=O)Oc1ccc(Cl)cc1 (racemic) [1-185]
Barnyard grass (Eo)
  herbicidal effects, Eo (barnyard grass): 5
Monochoria (Mo)
  herbicidal effects, Mo (monochoria): 5

## Cc1ccc(CC(=O)N(C)C(C)c2cncnc2C(C)(C)C)cc1 (racemic) [1-191]
Barnyard grass (Eo)
  herbicidal effects, Eo (barnyard grass): 5
Monochoria (Mo)
  herbicidal effects, Mo (monochoria): 5

## CN(C(=O)Cc1ccc(C(F)(F)F)cc1)C(c1cncnc1C(F)(F)F)C(C)(C)C (racemic) [1-305]
Barnyard grass (Eo)
  herbicidal effects, Eo (barnyard grass): 5
Barnyard grass (Ec)
  Ec (herbicidal effects, index): 5
Monochoria (Mo)
  herbicidal effects, Mo (monochoria): 5

## CC(C)c1ncncc1C(C(C)C)N(C)C(=O)Cc1ccc(C(F)(F)F)cc1 (racemic) [1-310]
Barnyard grass (Eo)
  herbicidal effects, Eo (barnyard grass): 5
Barnyard grass (Ec)
  Ec (herbicidal effects, index): 5
Monochoria (Mo)
  herbicidal effects, Mo (monochoria): 5

## CC(C)C(c1cncnc1-c1ccccc1)N(C)C(=O)Cc1ccccc1 (racemic) [1-322]
Barnyard grass (Eo)
  herbicidal effects, Eo (barnyard grass): 5
Monochoria (Mo)
  herbicidal effects, Mo (monochoria): 5

## CC(C)C(c1cncnc1-c1ccccc1)N(C)C(=O)Cc1ccc(F)cc1 (racemic) [1-323]
Barnyard grass (Eo)
  herbicidal effects, Eo (barnyard grass): 5
Barnyard grass (Ec)
  Ec (herbicidal effects, index): 4
Monochoria (Mo)
  herbicidal effects, Mo (monochoria): 5

## CC(C)c1ncncc1C(C(C)C)N(C)C(=O)Nc1ccccc1 (racemic) [1-326]
Barnyard grass (Ec)
  Ec (herbicidal effects, index): 4

## CC(C)c1ncncc1C(C(C)C)N(C)C(=O)N(C)c1ccccc1 (racemic) [1-327]
Barnyard grass (Eo)
  herbicidal effects, Eo (barnyard grass): 5
Barnyard grass (Ec)
  Ec (herbicidal effects, index): 5
Monochoria (Mo)
  herbicidal effects, Mo (monochoria): 5

## CC(C)C(c1cncnc1C(F)(F)F)N(C)C(=O)C(=O)c1ccccc1 (racemic) [1-328]
Barnyard grass (Eo)
  herbicidal effects, Eo (barnyard grass): 5
Barnyard grass (Ec)
  Ec (herbicidal effects, index): 5
Monochoria (Mo)
  herbicidal effects, Mo (monochoria): 5

## CON(C(=O)Cc1ccccc1)C(c1cncnc1C(F)(F)F)C(C)C (racemic) [1-332]
Barnyard grass (Ec)
  Ec (herbicidal effects, index): 5

## CC(C)C(c1cncnc1C(F)(F)F)N(C)C(=O)C(=O)c1ccc(Cl)cc1 (racemic) [1-335]
Barnyard grass (Eo)
  herbicidal effects, Eo (barnyard grass): 5
Barnyard grass (Ec)
  Ec (herbicidal effects, index): 5
Monochoria (Mo)
  herbicidal effects, Mo (monochoria): 5

## CSCC(c1cncnc1C(F)(F)F)N(C)C(=O)Cc1ccc(F)cc1 (racemic) [1-413]
Barnyard grass (Eo)
  herbicidal effects, Eo (barnyard grass): 5
Monochoria (Mo)
  herbicidal effects, Mo (monochoria): 5

## CSCC(c1cncnc1C(F)(F)F)N(C)C(=O)Cc1ccc(Cl)cc1 (racemic) [1-414]
Barnyard grass (Eo)
  herbicidal effects, Eo (barnyard grass): 5
Barnyard grass (Ec)
  Ec (herbicidal effects, index): 4
Monochoria (Mo)
  herbicidal effects, Mo (monochoria): 5

## CSCC(c1cncnc1C(F)(F)F)N(C)C(=O)Cc1ccc(Br)cc1 (racemic) [1-415]
Barnyard grass (Eo)
  herbicidal effects, Eo (barnyard grass): 5
Monochoria (Mo)
  herbicidal effects, Mo (monochoria): 5

## CSCC(c1cncnc1C(F)(F)F)N(C)C(=O)Cc1cccc(F)c1 (racemic) [1-420]
Barnyard grass (Eo)
  herbicidal effects, Eo (barnyard grass): 5
Monochoria (Mo)
  herbicidal effects, Mo (monochoria): 5

## CSCC(c1cncnc1C(F)(F)F)N(C)C(=O)Cc1ccc(C)cc1 (racemic) [1-421]
Barnyard grass (Eo)
  herbicidal effects, Eo (barnyard grass): 5
Monochoria (Mo)
  herbicidal effects, Mo (monochoria): 5

## CSCC(c1cncnc1C(F)(F)F)N(C)C(=O)Cc1ccc(Cl)cc1F (racemic) [1-422]
Barnyard grass (Eo)
  herbicidal effects, Eo (barnyard grass): 5
Monochoria (Mo)
  herbicidal effects, Mo (monochoria): 5

## CC(C)c1ncncc1C(C(C)C)N(C)C(=O)N(C)c1ccc(F)cc1 (racemic) [1-429]
Barnyard grass (Eo)
  herbicidal effects, Eo (barnyard grass): 5
Barnyard grass (Ec)
  Ec (herbicidal effects, index): 5
Monochoria (Mo)
  herbicidal effects, Mo (monochoria): 5

## CCc1ncncc1C(C(C)C)N(C)C(=O)Cc1ccc(F)cc1 (racemic) [1-433]
Barnyard grass (Eo)
  herbicidal effects, Eo (barnyard grass): 5
Barnyard grass (Ec)
  Ec (herbicidal effects, index): 5
Monochoria (Mo)
  herbicidal effects, Mo (monochoria): 5

## CCC(c1cncnc1C(C)C)N(C)C(=O)Cc1ccc(Cl)cc1 (racemic) [1-438]
Barnyard grass (Eo)
  herbicidal effects, Eo (barnyard grass): 5
Barnyard grass (Ec)
  Ec (herbicidal effects, index): 5
Monochoria (Mo)
  herbicidal effects, Mo (monochoria): 5

## CCOC(OCC)C(c1cncnc1C(C)C)N(C)C(=O)OCc1ccccc1 (racemic) [1-458]
Barnyard grass (Eo)
  herbicidal effects, Eo (barnyard grass): 5
Barnyard grass (Ec)
  Ec (herbicidal effects, index): 5
Monochoria (Mo)
  herbicidal effects, Mo (monochoria): 5

## COc1ccc(N(C)C(=O)N(C)C(c2cncnc2C(F)(F)F)C(C)C)cc1 (racemic) [1-460]
Barnyard grass (Eo)
  herbicidal effects, Eo (barnyard grass): 5
Barnyard grass (Ec)
  Ec (herbicidal effects, index): 5
Monochoria (Mo)
  herbicidal effects, Mo (monochoria): 5

## CON=CC(c1cncnc1C(C)C)N(C)C(=O)OCc1ccccc1 (racemic) [1-466]
Barnyard grass (Ec)
  Ec (herbicidal effects, index): 4

## CCOC(OCC)c1ncncc1C(C(C)C)N(C)C(=O)Cc1ccc(Cl)cc1 (racemic) [1-469]
Barnyard grass (Eo)
  herbicidal effects, Eo (barnyard grass): 5
Monochoria (Mo)
  herbicidal effects, Mo (monochoria): 5

## CON=Cc1ncncc1C(C(C)C)N(C)C(=O)OCc1ccccc1 (racemic) [1-471]
Barnyard grass (Ec)
  Ec (herbicidal effects, index): 5

## CC(C)C(c1cncnc1C=NO)N(C)C(=O)Cc1ccc(F)cc1 (racemic) [1-501]
Barnyard grass (Eo)
  herbicidal effects, Eo (barnyard grass): 5
Monochoria (Mo)
  herbicidal effects, Mo (monochoria): 5

## COC(C)(OC)C(c1cncnc1C(C)C)N(C)C(=O)Cc1ccc(F)cc1 (racemic) [1-510]
Barnyard grass (Eo)
  herbicidal effects, Eo (barnyard grass): 5
Monochoria (Mo)
  herbicidal effects, Mo (monochoria): 5

## CC(C)c1ncncc1C(C=NO)N(C)C(=O)OCc1ccccc1 (racemic) [1-531]
Barnyard grass (Ec)
  Ec (herbicidal effects, index): 4

## C#CCN(C(=O)Cc1ccccc1)C(c1cncnc1CCC)C(C)C (racemic) [1-616]
Barnyard grass (Ec)
  Ec (herbicidal effects, index): 5

## C#CCN(C(=O)Cc1ccc(Cl)cc1)C(c1cncnc1CCC)C(C)C (racemic) [1-618]
Barnyard grass (Ec)
  Ec (herbicidal effects, index): 5

## C#CCN(C(=O)Cc1ccc(F)cc1)C(c1cncnc1C(F)(F)F)C(C)(C)C (racemic) [1-620]
Barnyard grass (Ec)
  Ec (herbicidal effects, index): 5

## C#CCN(C(=O)Cc1ccccc1)C(c1cncnc1C(C)C)C(C)C (racemic) [1-621]
Barnyard grass (Ec)
  Ec (herbicidal effects, index): 5

## C#CCN(C(=O)Cc1ccc(Cl)cc1)C(c1cncnc1C(C)C)C(C)C (racemic) [1-623]
Barnyard grass (Ec)
  Ec (herbicidal effects, index): 5

## Cc1ccc(OC(=O)N(C)C(c2cncnc2C(F)(F)Cl)C(C)C)cc1 (racemic) [1-636]
Barnyard grass (Ec)
  Ec (herbicidal effects, index): 4

## COc1ccc(OC(=O)N(C)C(c2cncnc2C(F)(F)Cl)C(C)C)cc1 (racemic) [1-637]
Barnyard grass (Eo)
  herbicidal effects, Eo (barnyard grass): 5
Monochoria (Mo)
  herbicidal effects, Mo (monochoria): 5

## CCc1ncncc1C(CC)N(C)C(=O)Oc1ccc(Cl)cc1 (racemic) [1-646]
Barnyard grass (Ec)
  Ec (herbicidal effects, index): 4

## CC(C)C(c1cncnc1C(F)(F)F)N(C)C(=O)Cc1ccncc1 (racemic) [2-5]
Barnyard grass (Eo)
  herbicidal effects, Eo (barnyard grass): 5
Monochoria (Mo)
  herbicidal effects, Mo (monochoria): 5

## CC(C)C(c1cncnc1C(F)(F)F)N(C)C(=O)Cn1cc(Br)cn1 (racemic) [2-41]
Barnyard grass (Eo)
  herbicidal effects, Eo (barnyard grass): 5
Monochoria (Mo)
  herbicidal effects, Mo (monochoria): 5

## CC(C)C(c1cncnc1C(F)(F)F)N(C)C(=O)COc1nnc(C(F)(F)F)s1 (racemic) [2-47]
Barnyard grass (Ec)
  Ec (herbicidal effects, index): 4

## CC(C)C(c1cncnc1C(F)(F)Cl)N(C)C(=O)Oc1cccc2ccccc12 (racemic) [2-80]
Barnyard grass (Eo)
  herbicidal effects, Eo (barnyard grass): 5
Monochoria (Mo)
  herbicidal effects, Mo (monochoria): 4

## CC(C)C(c1cncnc1C(F)(F)Cl)N(C)C(=O)Oc1ccccc1 (racemic) [Compound 1-19]
Barnyard grass (Eo)
  Herbicidal effect index, Eo: 5
Monochoria (Mo)
  Herbicidal effect index, Mo: 5

## CN(C(=O)Cc1ccc(Cl)cc1)C(c1cncnc1C(F)(F)Cl)C1CC1 (racemic) [Compound 1-94]
Barnyard grass (Eo)
  Herbicidal effect index, Eo: 5
Monochoria (Mo)
  Herbicidal effect index, Mo: 5

## CN(C(=O)Cc1ccccc1F)C(c1cncnc1C(F)(F)F)C1CCCC1 (racemic) [Compound 1-156]
Barnyard grass (Eo)
  herbicidal effects, Eo (barnyard grass): 5
Monochoria (Mo)
  herbicidal effects, Mo (monochoria): 5

## CCOC(=O)c1ncncc1C(C(C)C)N(C)C(=O)C(C)c1ccc(Cl)cc1 (single isomer, unassigned) [1-595]
Barnyard grass (Eo)
  herbicidal effects, Eo (barnyard grass): 5
Monochoria (Mo)
  herbicidal effects, Mo (monochoria): 5

## CC(C)C(c1cncnc1C=O)N(C)C(=O)Cc1ccc(F)cc1 (centres unmarked) [Compound 1-523, N-[1-(4-formylpyrimidin-5-yl)-2-methylpropyl]-N-methyl-4-fluorophenylacetamide]
Barnyard grass (Ec)
  Ec (herbicidal effects, index): 4
